One experiment concerns the target T1, SaSecA1 (Staphylococcus aureus, UniProt O06446).
T1 sequence (O06446 1-843): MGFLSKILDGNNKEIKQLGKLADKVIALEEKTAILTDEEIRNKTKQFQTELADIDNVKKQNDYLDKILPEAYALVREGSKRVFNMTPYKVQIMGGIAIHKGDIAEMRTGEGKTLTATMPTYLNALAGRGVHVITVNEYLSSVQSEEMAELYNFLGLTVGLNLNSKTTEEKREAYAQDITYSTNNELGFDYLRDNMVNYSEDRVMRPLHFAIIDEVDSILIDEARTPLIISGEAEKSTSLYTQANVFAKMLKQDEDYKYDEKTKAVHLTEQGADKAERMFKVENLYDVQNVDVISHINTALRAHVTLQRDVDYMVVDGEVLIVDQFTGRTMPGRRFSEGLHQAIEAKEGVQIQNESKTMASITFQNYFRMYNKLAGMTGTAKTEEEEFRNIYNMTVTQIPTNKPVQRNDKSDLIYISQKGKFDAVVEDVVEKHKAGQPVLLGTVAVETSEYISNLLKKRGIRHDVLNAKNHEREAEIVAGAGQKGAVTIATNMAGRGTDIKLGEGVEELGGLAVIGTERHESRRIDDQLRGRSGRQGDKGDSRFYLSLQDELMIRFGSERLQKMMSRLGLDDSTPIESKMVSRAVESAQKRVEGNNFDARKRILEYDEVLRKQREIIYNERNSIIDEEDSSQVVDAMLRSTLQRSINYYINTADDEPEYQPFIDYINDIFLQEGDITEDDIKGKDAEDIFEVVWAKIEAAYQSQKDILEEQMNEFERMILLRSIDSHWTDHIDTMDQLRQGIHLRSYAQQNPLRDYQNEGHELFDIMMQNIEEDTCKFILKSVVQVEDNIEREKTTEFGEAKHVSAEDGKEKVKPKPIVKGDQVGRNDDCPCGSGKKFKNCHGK
The note with it: read-out: IC50, Ion Channel activity, SaSecA1; Table 1.

In another experiment the target is T2, SaSecA2 (Staphylococcus aureus, UniProt Q2FUW6).
T2 sequence (Q2FUW6 1-796): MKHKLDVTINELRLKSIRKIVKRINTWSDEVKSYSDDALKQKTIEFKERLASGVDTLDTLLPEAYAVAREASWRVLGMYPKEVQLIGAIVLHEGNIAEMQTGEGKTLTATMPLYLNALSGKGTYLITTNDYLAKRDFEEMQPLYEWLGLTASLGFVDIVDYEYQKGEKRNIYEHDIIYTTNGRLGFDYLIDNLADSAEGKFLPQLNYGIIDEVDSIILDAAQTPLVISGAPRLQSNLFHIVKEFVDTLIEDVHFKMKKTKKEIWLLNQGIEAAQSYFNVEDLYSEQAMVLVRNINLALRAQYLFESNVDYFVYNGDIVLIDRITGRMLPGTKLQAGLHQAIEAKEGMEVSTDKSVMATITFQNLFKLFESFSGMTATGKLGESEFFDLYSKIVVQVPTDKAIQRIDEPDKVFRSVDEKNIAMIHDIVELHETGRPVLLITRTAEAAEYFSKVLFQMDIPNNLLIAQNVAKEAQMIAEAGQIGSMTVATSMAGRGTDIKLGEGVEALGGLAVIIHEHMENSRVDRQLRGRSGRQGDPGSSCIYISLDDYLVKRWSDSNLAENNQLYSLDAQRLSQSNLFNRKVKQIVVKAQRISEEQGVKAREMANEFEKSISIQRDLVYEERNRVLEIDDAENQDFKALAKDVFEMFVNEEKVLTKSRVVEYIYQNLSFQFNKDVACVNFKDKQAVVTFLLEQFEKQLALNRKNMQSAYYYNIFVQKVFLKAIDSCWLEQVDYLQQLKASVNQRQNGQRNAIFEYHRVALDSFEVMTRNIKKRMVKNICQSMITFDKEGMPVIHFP
The experiment is described as follows: ATPase activity assay (malachite green), SaSecA2. Particulars: IC50, Intrinsic ATPase, SaSecA2, Table 1.

The target of experiment [1] is T3, EcSecA (Escherichia coli, UniProt P10408). Particulars: read-out: IC50, Translocation ATPase, EcSecA; Table 1.
Target sequence in this assay (P0AG99 whole entry): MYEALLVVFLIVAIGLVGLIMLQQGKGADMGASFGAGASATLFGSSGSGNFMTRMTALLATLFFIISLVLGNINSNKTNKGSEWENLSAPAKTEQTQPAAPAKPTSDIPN
Target sequence in this assay (P10408 whole entry): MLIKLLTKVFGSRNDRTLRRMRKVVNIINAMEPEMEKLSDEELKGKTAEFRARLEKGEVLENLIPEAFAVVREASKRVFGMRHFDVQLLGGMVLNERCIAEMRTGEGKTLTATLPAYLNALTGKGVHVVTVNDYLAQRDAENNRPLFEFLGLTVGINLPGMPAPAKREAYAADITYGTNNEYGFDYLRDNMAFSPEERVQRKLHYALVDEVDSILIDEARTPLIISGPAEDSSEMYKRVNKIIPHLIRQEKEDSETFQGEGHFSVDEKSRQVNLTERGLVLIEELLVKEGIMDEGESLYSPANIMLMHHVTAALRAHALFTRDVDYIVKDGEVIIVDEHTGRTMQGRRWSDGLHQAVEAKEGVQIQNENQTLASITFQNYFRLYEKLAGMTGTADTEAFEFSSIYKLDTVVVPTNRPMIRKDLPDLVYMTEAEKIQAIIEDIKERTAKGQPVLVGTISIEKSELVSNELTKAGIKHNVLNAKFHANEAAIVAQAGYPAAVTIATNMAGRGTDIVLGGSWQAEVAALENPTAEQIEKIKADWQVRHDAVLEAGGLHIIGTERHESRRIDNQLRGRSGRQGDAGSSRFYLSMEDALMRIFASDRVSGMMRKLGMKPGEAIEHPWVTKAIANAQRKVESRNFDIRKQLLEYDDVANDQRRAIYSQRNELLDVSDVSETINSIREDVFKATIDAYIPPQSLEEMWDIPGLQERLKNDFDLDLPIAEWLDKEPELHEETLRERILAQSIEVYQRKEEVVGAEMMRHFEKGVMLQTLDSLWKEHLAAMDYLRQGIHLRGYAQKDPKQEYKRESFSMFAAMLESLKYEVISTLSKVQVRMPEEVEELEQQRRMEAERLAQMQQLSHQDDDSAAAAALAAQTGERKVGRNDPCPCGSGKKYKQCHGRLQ
Target sequence in this assay (P0AGA2 whole entry, further chain): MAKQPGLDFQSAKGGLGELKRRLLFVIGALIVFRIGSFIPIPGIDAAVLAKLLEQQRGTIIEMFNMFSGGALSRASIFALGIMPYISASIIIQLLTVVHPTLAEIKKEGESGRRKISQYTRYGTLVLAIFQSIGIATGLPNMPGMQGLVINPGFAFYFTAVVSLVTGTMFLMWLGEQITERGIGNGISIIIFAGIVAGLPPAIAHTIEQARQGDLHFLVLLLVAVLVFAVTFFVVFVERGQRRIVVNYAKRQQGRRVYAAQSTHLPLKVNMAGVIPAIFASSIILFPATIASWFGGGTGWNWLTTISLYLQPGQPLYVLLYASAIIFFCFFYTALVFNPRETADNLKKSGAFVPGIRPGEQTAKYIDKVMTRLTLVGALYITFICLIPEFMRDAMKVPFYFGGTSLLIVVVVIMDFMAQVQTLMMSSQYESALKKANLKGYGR
Target sequence in this assay (P0AG96 whole entry, further chain): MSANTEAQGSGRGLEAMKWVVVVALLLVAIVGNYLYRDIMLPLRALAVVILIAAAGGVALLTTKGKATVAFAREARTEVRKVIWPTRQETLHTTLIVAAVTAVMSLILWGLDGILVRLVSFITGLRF
A further experiment has as its system S. aureus Mu50. Description: Bacteriostatic effect, S. aureus Mu50. Particulars: Staphylococcus aureus, MU50, read-out: MIC95 against drug resistant S. aureus Mu50.
In experiment [2] the target is T3, EcSecA. Description: biochemical. Particulars: IC50, Protein Translocation, Table 1.
Target sequence in this assay (P0AG99 whole entry): as the sequence (P0AG99 whole entry) above
Target sequence in this assay (P10408 whole entry): as the sequence (P10408 whole entry) above
Target sequence in this assay (P0AGA2 whole entry, further chain): as the sequence (P0AGA2 whole entry, further chain) above
Target sequence in this assay (P0AG96 whole entry, further chain): as the sequence (P0AG96 whole entry, further chain) above
Another experiment deals with S. pyogenes, MGAS5005. The experiment is described as follows: MIC95, S. pyogenes MGAS5005. Format: cell-based. The note with it: Streptococcus pyogenes, MGAS5005; read-out: MIC95, S. pyogenes MGAS5005.
In a further experiment the target is BaSecA1 (Bacillus anthracis, UniProt Q81X26). The experiment is described as follows: cell-based. The note with it: read-out: IC50, Ion Channel activity, BGaSecA 1.
In experiment [3] the target is T4, BsSecA (Bacillus subtilis, UniProt P28366). Description: biochemical. The class given is biochemical, B. subtilis.
A further experiment deals with BsSecA2. Particulars: read-out: IC50, Intrinsic ATPase, BsSecA2; Table 1.
The target in a further experiment is EcSecA N68 (Escherichia coli, UniProt P10408). The experiment is described as follows: biochemical. The class given is biochemical, E. coli. Particulars: Table 1; read-out: IC50, Intrinsic ATPase, EcSecA N68.
The next experiment deals with MsSecA (Mycolicibacterium smegmatis, UniProt P71533). Description: SecA-liposomes ion-channel activity in oocytes, MsSecA. Particulars: Table 1. Format: cell-based.
Experiment [4] addresses T3, EcSecA. The note with it: read-out: IC50, Ion Channel activity, EcSecA; Table 1.
Target sequence in this assay (P10408 whole entry): as the sequence (P10408 whole entry) above
The target in a further experiment is PaSecA (Pseudomonas aeruginosa, UniProt Q9LCT3). The experiment is described as follows: cell-based. Format: cell-based. Particulars: IC50, Ion Channel activity, PASecA, Table 1.
The target of experiment [5] is T4, BsSecA. The experiment is described as follows: cell-based. Also noted: species or system B. subtilis. The note with it: Table 1; read-out: IC50, Ion Channel activity, BsSecA.
The target of a further experiment is MtbSecA (Mycobacterium tuberculosis, UniProt P9WGP5). The experiment is described as follows: cell-based.
Another experiment deals with SpSecA (Streptococcus pyogenes, UniProt Q99Y96). Format: cell-based. The note with it: read-out: IC50, Ion Channel activity, SpSecA.

Values after ≈ are worked out from the molar mass of the structure shown. Like-named read-outs stand apart in the source and are kept apart here.

T4 sequence (P28366 whole entry): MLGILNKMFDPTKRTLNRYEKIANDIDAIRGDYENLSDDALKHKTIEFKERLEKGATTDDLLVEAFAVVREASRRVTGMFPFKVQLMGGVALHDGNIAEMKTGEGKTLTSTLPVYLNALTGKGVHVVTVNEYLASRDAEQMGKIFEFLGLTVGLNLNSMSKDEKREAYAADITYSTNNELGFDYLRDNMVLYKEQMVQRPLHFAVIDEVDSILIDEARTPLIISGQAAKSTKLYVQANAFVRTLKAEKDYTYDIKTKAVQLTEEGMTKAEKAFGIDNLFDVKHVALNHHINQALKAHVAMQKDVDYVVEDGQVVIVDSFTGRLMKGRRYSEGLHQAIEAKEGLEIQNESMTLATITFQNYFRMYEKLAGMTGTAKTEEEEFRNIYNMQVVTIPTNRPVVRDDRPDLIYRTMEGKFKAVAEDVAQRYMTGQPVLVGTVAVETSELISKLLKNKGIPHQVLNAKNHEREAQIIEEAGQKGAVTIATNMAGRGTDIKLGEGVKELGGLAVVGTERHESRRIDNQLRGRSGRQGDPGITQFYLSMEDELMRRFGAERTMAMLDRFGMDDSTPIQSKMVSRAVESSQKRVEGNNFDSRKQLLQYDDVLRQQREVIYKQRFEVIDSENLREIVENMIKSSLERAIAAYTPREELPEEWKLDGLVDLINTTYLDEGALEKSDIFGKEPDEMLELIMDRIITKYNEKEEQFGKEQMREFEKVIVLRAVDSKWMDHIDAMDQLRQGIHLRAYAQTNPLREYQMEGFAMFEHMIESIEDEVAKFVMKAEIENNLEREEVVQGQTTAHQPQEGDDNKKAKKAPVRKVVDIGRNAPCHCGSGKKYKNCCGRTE
EcSecA N68, sequence (P10408 1-610): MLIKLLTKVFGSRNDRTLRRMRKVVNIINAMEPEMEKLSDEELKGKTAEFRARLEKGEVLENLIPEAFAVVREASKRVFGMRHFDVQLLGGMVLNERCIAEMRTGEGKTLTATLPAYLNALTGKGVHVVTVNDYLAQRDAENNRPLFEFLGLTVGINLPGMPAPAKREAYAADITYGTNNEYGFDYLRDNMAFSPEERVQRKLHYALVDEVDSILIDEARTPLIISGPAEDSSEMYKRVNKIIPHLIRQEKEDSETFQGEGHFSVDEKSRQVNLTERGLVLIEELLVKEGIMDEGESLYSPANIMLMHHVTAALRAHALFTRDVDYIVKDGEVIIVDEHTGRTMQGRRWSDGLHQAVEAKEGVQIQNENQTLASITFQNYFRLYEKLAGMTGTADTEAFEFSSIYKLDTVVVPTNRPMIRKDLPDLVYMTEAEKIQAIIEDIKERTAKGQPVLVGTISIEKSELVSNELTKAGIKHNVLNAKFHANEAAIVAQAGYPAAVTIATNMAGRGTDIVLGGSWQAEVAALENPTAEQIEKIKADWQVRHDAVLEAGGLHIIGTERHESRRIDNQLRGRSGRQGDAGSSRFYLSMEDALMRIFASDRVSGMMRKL
MsSecA, sequence (P71533 whole entry): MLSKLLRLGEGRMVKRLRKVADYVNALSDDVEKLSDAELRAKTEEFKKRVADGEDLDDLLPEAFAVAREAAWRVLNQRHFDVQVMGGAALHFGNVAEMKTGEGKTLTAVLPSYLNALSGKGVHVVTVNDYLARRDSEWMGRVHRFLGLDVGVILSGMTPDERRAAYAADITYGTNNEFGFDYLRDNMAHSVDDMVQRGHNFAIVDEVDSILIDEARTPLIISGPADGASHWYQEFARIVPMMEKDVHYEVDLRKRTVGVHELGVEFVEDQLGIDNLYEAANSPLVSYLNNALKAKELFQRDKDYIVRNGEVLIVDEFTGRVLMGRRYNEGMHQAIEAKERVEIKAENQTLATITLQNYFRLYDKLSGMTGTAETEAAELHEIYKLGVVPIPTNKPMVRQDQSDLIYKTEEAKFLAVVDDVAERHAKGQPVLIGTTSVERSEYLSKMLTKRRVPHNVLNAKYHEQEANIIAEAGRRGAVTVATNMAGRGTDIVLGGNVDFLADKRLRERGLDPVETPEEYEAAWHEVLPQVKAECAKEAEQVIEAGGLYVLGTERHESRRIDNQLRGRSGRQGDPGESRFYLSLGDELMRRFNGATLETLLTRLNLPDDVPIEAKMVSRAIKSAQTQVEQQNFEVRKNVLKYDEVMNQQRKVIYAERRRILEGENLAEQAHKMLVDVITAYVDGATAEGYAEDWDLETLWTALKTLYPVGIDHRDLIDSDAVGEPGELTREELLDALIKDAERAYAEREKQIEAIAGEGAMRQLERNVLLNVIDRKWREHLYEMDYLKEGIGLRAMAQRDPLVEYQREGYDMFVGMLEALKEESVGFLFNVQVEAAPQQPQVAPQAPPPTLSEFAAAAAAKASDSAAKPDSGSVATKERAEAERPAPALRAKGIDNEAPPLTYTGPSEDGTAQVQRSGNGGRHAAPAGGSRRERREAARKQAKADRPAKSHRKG
SpSecA, sequence (Q99Y96 whole entry): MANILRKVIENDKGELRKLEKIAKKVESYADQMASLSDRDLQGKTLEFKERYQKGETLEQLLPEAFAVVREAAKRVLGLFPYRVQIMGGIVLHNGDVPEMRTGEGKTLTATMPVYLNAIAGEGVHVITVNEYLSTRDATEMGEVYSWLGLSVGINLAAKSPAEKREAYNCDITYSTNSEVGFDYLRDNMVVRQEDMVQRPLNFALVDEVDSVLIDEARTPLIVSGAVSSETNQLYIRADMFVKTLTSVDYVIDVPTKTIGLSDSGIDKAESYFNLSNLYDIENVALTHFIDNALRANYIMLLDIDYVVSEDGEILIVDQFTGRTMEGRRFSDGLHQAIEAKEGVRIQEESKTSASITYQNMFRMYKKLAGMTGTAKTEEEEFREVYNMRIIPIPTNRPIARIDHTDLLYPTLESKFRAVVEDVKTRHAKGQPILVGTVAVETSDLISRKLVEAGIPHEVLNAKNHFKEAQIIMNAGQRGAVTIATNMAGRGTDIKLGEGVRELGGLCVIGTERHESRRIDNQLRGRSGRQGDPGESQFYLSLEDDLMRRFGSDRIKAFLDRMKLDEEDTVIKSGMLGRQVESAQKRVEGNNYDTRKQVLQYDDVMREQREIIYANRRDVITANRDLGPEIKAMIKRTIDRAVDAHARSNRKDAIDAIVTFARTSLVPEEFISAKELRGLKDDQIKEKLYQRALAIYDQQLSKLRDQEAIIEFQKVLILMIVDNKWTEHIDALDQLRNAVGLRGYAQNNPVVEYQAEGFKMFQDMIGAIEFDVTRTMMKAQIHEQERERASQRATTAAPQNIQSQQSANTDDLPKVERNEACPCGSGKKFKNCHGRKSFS

One may read the IC50 as the concentration that gives 50% inhibition. On to `CSc1nc(Cl)cc(Sc2nnc(-c3cc(C(F)(F)F)cc(C(F)(F)F)c3)[nH]2)n1` [SCA-107], for which the IC50 is 600 nM at SaSecA1; 50000 nM against SaSecA2; 28000 nM at EcSecA [1]; 25000 nM on EcSecA [2]; 700 nM on BaSecA1; greater than 200000 nM at BsSecA [3]. For the same compound, the IC50 at BsSecA2 turned out to be 65000 nM; at EcSecA N68, 30000 nM; on MsSecA, 2500 nM; at EcSecA [4], 1600 nM; against PaSecA, 1300 nM; at BsSecA [5], 2100 nM. Moreover, the IC50 against MtbSecA stood at 2000 nM; on SpSecA, 700 nM. Besides, the MIC with S. aureus Mu50 turned out to be 0.5 µM (≈ 0.236 µg/mL); in the experiment on S. pyogenes, MGAS5005, 0.19 µM (≈ 0.0896 µg/mL).
